Assay results from patent US10214512B2, “Factor XIA inhibitors” (MERCK SHARP & DOHME CORP., priority 2015, dated 2019).
Like-named read-outs stand apart in the source and are kept apart here.

Assays:
[1] = target: purified human Factor XIa (Homo sapiens (Human), UniProt P03951); assay: Factor XIa Assay; assay type: biochemical; conditions: purified human Factor XIa 40 pM; substrate Z-Gly-Pro-Arg-AFC 100 μM; 50 mM HEPES pH 7.4; read-out: Human FXIa Ki
Method in brief: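 Purified human FXIa at 40 pM final with fluorogenic Z-Gly-Pro-Arg-AFC at 100 μM, in 50 mM HEPES pH 7.4, 150 mM NaCl, 5 mM CaCl2, 0.1% PEG 8000, at rt or 37° C. Initial velocities measured after enzyme–inhibitor equilibration; Ki derived from Vo/Vi versus [I] assuming competitive inhibition.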

[2] = target: purified Human plasma Kallikrein (Homo sapiens (Human), UniProt P03952); assay: Kallikrein Assay; assay type: biochemical
Method in brief: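 Purified human plasma kallikrein (0.5 nM) with fluorogenic Ac-K-P-R-AFC ([…]) in 50 mM HEPES pH 7.4, 150 mM NaCl, 5 mM CaCl2, 0.1% PEG 8000, at rt or 37 °C. Substrate hydrolysis rate read with and without inhibitor; IC50 from four-parameter logistic fit, converted to Ki by Cheng–Prusoff.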

[3] = purified Human plasma Kallikrein 0.5 nM, substrate Acetyl-K-P-R-AFC, 50 mM HEPES pH 7.4, Ki from IC50 by Cheng Prusoff

Chain of purified Human plasma Kallikrein (P03952 391-638): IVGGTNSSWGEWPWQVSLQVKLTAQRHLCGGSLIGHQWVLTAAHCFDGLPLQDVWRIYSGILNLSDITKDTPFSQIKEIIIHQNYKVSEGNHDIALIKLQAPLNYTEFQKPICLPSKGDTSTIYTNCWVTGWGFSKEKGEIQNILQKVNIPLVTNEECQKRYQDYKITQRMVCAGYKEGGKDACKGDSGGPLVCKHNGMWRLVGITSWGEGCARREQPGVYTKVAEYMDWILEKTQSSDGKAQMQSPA
Chain of purified Human plasma Kallikrein (P03952 20-390 partner): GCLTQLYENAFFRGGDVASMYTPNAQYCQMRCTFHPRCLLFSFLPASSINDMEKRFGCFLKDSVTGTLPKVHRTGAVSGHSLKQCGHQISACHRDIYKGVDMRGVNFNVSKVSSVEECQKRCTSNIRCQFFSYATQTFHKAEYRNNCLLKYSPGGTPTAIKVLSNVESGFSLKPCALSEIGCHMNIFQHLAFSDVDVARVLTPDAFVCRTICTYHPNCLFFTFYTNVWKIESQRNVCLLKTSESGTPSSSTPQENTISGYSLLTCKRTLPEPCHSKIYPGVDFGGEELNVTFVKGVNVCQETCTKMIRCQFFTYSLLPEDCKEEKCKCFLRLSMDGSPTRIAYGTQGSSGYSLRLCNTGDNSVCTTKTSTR
Chain of purified human Factor XIa (P03951 388-625): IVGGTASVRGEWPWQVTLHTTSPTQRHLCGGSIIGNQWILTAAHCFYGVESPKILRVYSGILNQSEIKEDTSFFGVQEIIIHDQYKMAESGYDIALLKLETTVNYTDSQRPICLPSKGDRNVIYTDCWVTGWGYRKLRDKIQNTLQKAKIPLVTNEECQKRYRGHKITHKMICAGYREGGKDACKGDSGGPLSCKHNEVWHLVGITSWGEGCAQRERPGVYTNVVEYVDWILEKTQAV
Chain of purified human Factor XIa (P03951 19-387 partner): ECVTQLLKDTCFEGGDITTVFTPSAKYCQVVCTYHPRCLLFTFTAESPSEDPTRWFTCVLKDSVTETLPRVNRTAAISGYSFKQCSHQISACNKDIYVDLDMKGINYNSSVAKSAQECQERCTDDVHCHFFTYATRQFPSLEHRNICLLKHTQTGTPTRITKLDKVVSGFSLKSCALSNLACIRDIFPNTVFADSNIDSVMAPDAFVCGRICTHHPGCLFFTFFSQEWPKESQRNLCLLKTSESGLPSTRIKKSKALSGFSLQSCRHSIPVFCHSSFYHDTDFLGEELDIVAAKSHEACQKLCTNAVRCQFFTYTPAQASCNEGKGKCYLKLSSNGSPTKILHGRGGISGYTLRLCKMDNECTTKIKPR

SMILES | Ki [1] | Ki [2, 3] | Ki [2]
O=C1CCCC[C@H](c2ccc(-c3cc(Cl)ccc3-n3cnnn3)cn2)c2cccc(c2)-c2cc(F)ccc2N1 [Example 1-a, (S)-9-(5-(5-Chloro-2-(1H-tetrazol-1-yl)phenyl)pyridin-2-yl)-2^5-fluoro-3-aza-1(1,3),2(1,2)-dibenzenacyclononaphan-4-one] | 22.3 nM | 205 nM | –
COC(=O)Nc1ccc2c(c1)NC(=O)CCCC[C@H](c1ccc(-c3cc(Cl)ccc3-n3cc(C(F)(F)F)cn3)c[n+]1[O-])c1cccc-2c1 (single isomer, unassigned) [Example 40] | 0.46 nM | 13.7 nM | –
COC(=O)Nc1ccc2c(c1)NC(=O)CCCC[C@H](c1ccc(-c3cc(Cl)ccc3-c3cnn(C(F)F)c3)c[n+]1[O-])c1cccc-2c1 (single isomer, unassigned) [Example 42] | 0.44 nM | 3.1 nM | –
COC(=O)Nc1ccc2c(c1)NC(=O)CCCC[C@H](c1ccc(-c3cc(Cl)ccc3OC(F)F)c[n+]1[O-])c1cccc-2c1 (single isomer, unassigned) [Example 33] | 0.28 nM | 1.67 nM | –
O=C1CCCC[C@H](c2ccc(-c3c(F)ccc(Cl)c3F)c[n+]2[O-])c2cccc(c2)-c2ccc(Nc3ncccn3)cc2N1 [Example 48, (S)-5-(3-chloro-2,6-difluorophenyl)-2-(4-oxo-2^4-(pyrimidin-2-YLAMINO)-3-AZA-1 (1,3),2(1,2)-dinenzenacyclononaphane-9-yl)pyridine 1-oxide] | 2.1 nM | 1.76 nM | –
COC(=O)Nc1ccc2c(c1)NC(=O)CCCCC(c1ccc(-c3c(F)ccc(Cl)c3F)c[n+]1[O-])c1cccc-2c1 (single isomer, unassigned) [Example 13-a, 5-(3-Chloro-2,6-difluorophenyl)-2-(2^4-((methoxycarbonyl)amino)-4-oxo-3-aza-1(1,3),2(1,2)-dibenzenacyclononaphane-9-yl)pyridine 1-oxide] | 0.36 nM | 1.55 nM | –
COC(=O)Nc1ccc2c(c1)NC(=O)CCCCC(c1ccc(-c3cc(Cl)ccc3-n3cnnn3)cn1)c1cc(F)cc-2c1 (stereo not shown) [Example 51, Methyl (9-(5-(5-chloro-2-(1H-tetrazol-1-yl)phenyl)pyridin-2-yl)-1^5-fluoro-4-oxo-3-aza-1(1,3),2(1,2)-dinenzenacyclononaphane-2^4-yl)carbamate] | 2.76 nM | 46.6 nM | –
O=C1CCCC[C@H](c2ccc(-c3cc(Cl)ccc3-n3cnnn3)c[n+]2[O-])c2cccc(c2)-c2cc(C(=O)O)ccc2N1 [Example 4-b, 2-(2^5-Carboxy-4-oxo-3-aza-1(1,3),2(1,2)-dibenzenacyclononaphane-9-yl)-5-(5-chloro-2-(1H-tetrazol-1-yl)phenyl)pyridine 1-oxide] | 8.4 nM | – | 332 nM
C[C@@H]1CCC[C@H](c2ccc(-c3cc(Cl)ccc3-n3cnnn3)c[n+]2[O-])c2cccc(c2)-c2cc(F)ccc2NC1=O [Example 3-d, 5-(5-Chloro-2-(1H-tetrazol-1-yl)phenyl)-2-((5R,9S)-2^5-fluoro-5-methyl-4-oxo-3-aza-1(1,3),2(1,2)-dibenzenacyclononaphane-9-yl)pyridine 1-oxide] | 0.18 nM | 0.59 nM | –
CC1CCCC(c2ccc(-c3c(-n4cnnn4)ccc(Cl)c3F)c[n+]2[O-])c2cccc(c2)-c2cc(F)ccc2NC1=O (stereo not shown) [Example 8, 5,5-(3-chloro-2-fluoro-6-(1h-tetrazol-1-yl)phenyl)-2-(2^5-fluoro-5-methyl-4-oxo-3-aza-1(1,3),2(1,2)-dibenzenacyclononaphane-9-yl)pyridine 1-oxide] | 0.41 nM | 1.94 nM | –
COC(=O)Nc1ccc2c(c1)NC(=O)CCCCC(c1ccc(-c3cc(Cl)ccc3-n3cnnn3)cn1)c1cc-2ncc1F (stereo not shown) [Example 57, methyl (9-(5-(5-chloro-2-(1h-tetrazol-1-yl)phenyl)pyridin-2-yl)-1^5-fluoro-4-oxo-3-aza-1(2,4)-pyridina-2(1,2)-benzenacyclononaphane-2^4-yl)carbamate] | 0.52 nM | 12.1 nM | –

Second part, led by results:

Ki [1] | Ki [2, 3] | SMILES | Ki [2]
0.59 nM | 13.3 nM | O=C1CCCCC(c2ccc(-c3cc(Cl)ccc3-n3cnnn3)c[n+]2[O-])c2cc[n+]([O-])c(c2)-c2cc(F)ccc2N1 (stereo not shown) [Example 80, 9-(5-(5-chloro-2-(1h-tetrazol-1-yl)phenyl)-1-oxidopyridin-2-yl)-2^5-fluoro-4-oxo-3-aza-1(2,4)-pyridin-1-iuma-2(1,2)-benzenacyclononaphane 1^1-oxide] | –
2.3 nM | 665 nM | CCc1[nH]c2nc1-c1ccc(NC(=O)OC)cc1NC(=O)CCCC[C@@H]2c1ccc(-c2c(F)cccc2-n2cc(C(F)(F)F)cn2)c[n+]1[O-] (single isomer, unassigned) [Example 138] | –
0.47 nM | 56.7 nM | Cc1[nH]c2nc1-c1cc(F)ccc1NC(=O)CCCC[C@@H]2c1ccc(-c2cc(F)ccc2-n2cnnn2)c[n+]1[O-] (single isomer, unassigned) [Example 142] | –
0.14 nM | 0.43 nM | COC(=O)Nc1ccc2c(c1)NC(=O)CCCCC(c1ccc(-c3cc(Cl)ccc3OC(F)F)c[n+]1[O-])c1nc-2c[nH]1 (single isomer, unassigned) [Example 102-a, (Z)-5-(5-Chloro-2-(difluoromethoxy)phenyl)-2-(2^4-((methoxycarbonyl)amino)-4-oxo-1^1H-3-aza-1(4,2)-imidazola-2(1,2) -benzenacyclononaphane-9-yl)pyridine 1-oxide] | –
0.21 nM | 5.76 nM | O=C1CCCCC(c2ccc(-c3cc(Cl)ccc3-n3cc(C(F)(F)F)nn3)c[n+]2[O-])c2cccc(c2)-c2c(cnn2C(F)F)N1 (stereo not shown) [Example 165, 5-(5-chloro-2-(4-(trifluoromethyl)-1H-1,2,3-triazol-1-yl)phenyl)-2-(1^1-(difluoromethyl)-8-oxo-1^1H-9-aza-1(5,4)-pyrazola-2(1,3) -benzenacyclononaphane-3-Yl)pyridine 1-oxide] | –
0.2 nM | 0.73 nM | COC(=O)Nc1ccc2c(c1)NC(=O)CCCC[C@H](c1ccc(-c3c(C(F)F)ccc(Cl)c3F)c[n+]1[O-])c1nc-2c(C)[nH]1 (single isomer, unassigned) [Example 124] | –
0.52 nM | 0.21 nM | COC(=O)Nc1ccc2c(c1)NC(=O)CCCCC(c1ccc(-c3c(F)ccc(Cl)c3F)c[n+]1[O-])c1nc-2c(Cl)[nH]1 (single isomer, unassigned) [Example 110-a, (Z)-5-(3-Chloro-2,6-difluorophenyl)-2-(1^5-chloro-2^4-((Methoxycarbonyl)amino)-4-oxo-1^1H-3-aza-1(4,2)-imidazola-2(1,2) -benzenacyclononaphane-9-yl)pyridine 1-oxide] | –
0.33 nM | 1.61 nM | COC(=O)Nc1ccc2c(c1)NC(=O)[C@@H](C)CCC[C@H](c1ccc(-c3c(F)cccc3F)c[n+]1[O-])c1nc-2c(C)[nH]1 (single isomer, unassigned) [Example 143-a] | –
0.34 nM | 1.08 nM | COC(=O)Nc1ccc2c(c1)NC(=O)CCCC[C@H](c1ccc(-c3c(F)ccc(Cl)c3F)c[n+]1[O-])c1cc-2ccn1 (single isomer, unassigned) [Example 73] | –
0.33 nM | 1.02 nM | COC(=O)Nc1ccc2c(c1)NC(=O)CCCCC(c1ccc(-c3c(OC(F)F)ccc(Cl)c3F)c[n+]1[O-])c1nc-2c[nH]1 (single isomer, unassigned) [Example 100-a, (Z)-5-(3-Chloro-6-(difluoromethoxy)-2-fluorophenyl)-2-(2^4-((methoxycarbonyl)amino)-4-oxo-1^1H-3-aza-1(4,2)-imidazola-2(1,2) -benzenacyclononaphane-9-yl)pyridine 1-oxide] | –
1.7 nM | 137 nM | COC(=O)Nc1ccc2c(c1)NC(=O)CCCCC(c1ccc(-c3c(F)cc(I)c(Cl)c3F)c[n+]1[O-])c1nc-2c[nH]1 (single isomer, unassigned) [Example 103-a, (Z)-5-(3-Chloro-2,6-difluoro-4-iodophenyl)-2-(2^4-((methoxycarbonyl)amino)-4-oxo-1^1H-3-aza-1(4,2)-imidazola-2(1,2) -benzenacyclononaphane-9-yl)pyridine 1-oxide] | –
0.1 nM | 0.4 nM | COC(=O)Nc1ccc2c(c1)NC(=O)[C@H](C)CCC[C@H](c1ccc(-c3c(F)cccc3F)c[n+]1[O-])c1nc-2c(C)[nH]1 (single isomer, unassigned) [Example 143-b] | –
0.53 nM | 0.6 nM | COC(=O)Nc1ccc2c(c1)NC(=O)CCCCC(c1ccc(-c3c(F)ccc(Cl)c3F)c[n+]1[O-])c1nc-2c[nH]1 (single isomer, unassigned) [Example 96-a, (Z)-5-(3-chloro-2,6-difluorophenyl)-2-(2^4-((methoxycarbonyl)amino)-4-oxo-1^1H-3-aza-1(4,2)-imidazola-2(1,2)-benzenacyclononaphane-9-yl)pyridine 1-oxide] | –
0.5 nM | 2.96 nM | COC(=O)Nc1ccc2c(c1)NC(=O)CCCC[C@H](c1ccc(-c3c(F)ccc(Cl)c3F)c[n+]1[O-])c1cc-2ncc1F (single isomer, unassigned) [Example 72] | –
3.2 nM | 121 nM | O=C1CCCCC(c2ccc(-c3cc(F)ccc3-n3cc(Cl)nn3)c[n+]2[O-])c2cccc(c2)-c2cc(F)ccc2N1 (single isomer, unassigned) [Example 90-a, 5-(2-(4-Chloro-1H-1,2,3-triazol-1-yl)-5-fluorophenyl)-2-(2^5-fluoro-4-oxo-3-aza-1(1,3),2(1,2)-dinenzenacyclononaphane-9-yl)pyridine 1-oxide] | –
